≈ marks a conversion by molar mass, not a printed value. Where a name gives a salt, the structure may show the parent alone. Read-outs that look alike come from different tables or passages of the source.
What was measured:
[1] = Aqueous solubility assay in Normal Ringer Solution; conditions: Normal Ringer Solution; for Solubility Ringer (nM): room temperature; for solubility at 40 min: saline or isotonic, kinetic from dmso stock
Method: Following vortex and incubation for a sufficient time (e.g. 40 minutes at room temperature), solutions were filtered, quenched with acetonitrile, and analyzed by Liquid Chromotography. Solubility Limits were determined by comparison to a standard curve.

hTRPV3 = hTRPV3 (Homo sapiens (Human), UniProt Q8NET8); test: Whole-cell patch clamp, hTRPV3 Phase 1 / Phase 2 currents; assay type: cell-based
In short: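 Whole-cell recordings on induced TRPV3 cells replated on coverslips, held at −40 mV with 400 ms ramps from −120 to +100 mV every 5 s; currents read at −80 and +80 mV. Ringer's external solution; current activated by heating to ≥28 °C or 20 μM 2-APB.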

[2] = Phase 1 current, inward, whole-cell patch clamp, read-out: hTRPV3 Patch P1 Inwd
[3] = Phase 1 current, read-out: hTRPV3 (nM) (Phase 1)
[4] = Phase 2 current, inward, whole-cell patch clamp, read-out: hTRPV3 Patch P2 Inwd
[5] = Phase 2 current, read-out: hTRPV3 (nM) (Phase 2)
[6] = read-out: hTRPV3 (nM) (Phase 2)

Chain of hTRPV3 (Q8NET8 whole entry): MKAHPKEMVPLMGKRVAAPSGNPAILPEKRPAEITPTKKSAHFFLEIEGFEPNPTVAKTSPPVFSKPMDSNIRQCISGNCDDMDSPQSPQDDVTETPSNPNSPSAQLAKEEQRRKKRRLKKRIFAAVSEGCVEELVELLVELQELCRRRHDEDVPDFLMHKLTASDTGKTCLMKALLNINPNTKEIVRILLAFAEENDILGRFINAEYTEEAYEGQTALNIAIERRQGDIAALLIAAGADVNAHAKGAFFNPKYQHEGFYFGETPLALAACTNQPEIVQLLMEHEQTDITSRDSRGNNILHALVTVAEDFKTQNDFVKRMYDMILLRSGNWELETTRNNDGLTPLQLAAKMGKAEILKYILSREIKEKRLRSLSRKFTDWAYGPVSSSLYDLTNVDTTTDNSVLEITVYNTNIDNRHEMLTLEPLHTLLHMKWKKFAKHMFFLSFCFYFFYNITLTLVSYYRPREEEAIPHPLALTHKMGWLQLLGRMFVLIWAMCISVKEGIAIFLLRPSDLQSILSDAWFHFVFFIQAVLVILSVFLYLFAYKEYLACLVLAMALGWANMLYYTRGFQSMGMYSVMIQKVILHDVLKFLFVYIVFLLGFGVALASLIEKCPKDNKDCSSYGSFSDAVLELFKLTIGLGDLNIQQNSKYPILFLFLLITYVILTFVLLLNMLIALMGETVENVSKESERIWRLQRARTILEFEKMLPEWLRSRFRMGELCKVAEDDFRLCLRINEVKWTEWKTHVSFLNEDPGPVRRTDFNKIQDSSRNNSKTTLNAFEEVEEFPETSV

Compound	Solubility Ringer (nM) [1]	IC50 (hTRPV3; [2]) [nM]	IC50 (hTRPV3; [3]) [nM]	IC50 (hTRPV3; [4]) [nM]	IC50 (hTRPV3; [5]) [nM]	solubility at 40 min [1] [µM]	further results
CC(C)Oc1ccccc1N1CC[C@H](Oc2ccc3cc(Cl)ccc3n2)C1 [Compound 1-76, (S)-6-chloro-2-(1-(2-isopropoxyphenyl)pyrrolidin-3-yloxy)quinoline]	BLQ	> 1000	> 3200	> 1000	~4600	–	–
OCc1cc(Oc2ccccc2)ccc1N1CC[C@H](Nc2ncccc2Cl)C1 [Compound 1-381, (S)-(2-(3-(3-chloropyridin-2-ylamino)pyrrolidin-1-yl)-5-phenoxyphenyl)methanol]	–	10 to 100	23.3	–	–	> 1.6	–
NCc1cc(-c2ccccc2)ccc1N1CC[C@@H](Oc2ccc(C(F)(F)F)cn2)C1 [Compound 1-109, (R)-(4-(3-(5-(trifluoromethyl)pyridin-2-yloxy)pyrrolidin-1-yl)biphenyl-3-yl)methanamine hydrochloride]	–	–	–	–	–	> 2.95	IC50 (hTRPV3; hTRPV3 Patch P1 Inwd (nM)): > 1000 nM; IC50 (hTRPV3; hTRPV3 Patch P2 Inwd (nM)): > 1000 nM; IC50 (hTRPV3; read-out: hTRPV3 (nM) (Phase 1)): 1870 nM; IC50 (hTRPV3; [6]): 1930 nM
Cc1ccc(Oc2ccc(N3CC[C@H](Oc4ncccc4Cl)C3)c(CO)c2)cc1 [Compound 1-250, (S)-(2-(3-(3-chloropyridin-2-yloxy)pyrrolidin-1-yl)-5-(p-tolyloxy)phenyl)methanol]	–	< 10	8.42	–	–	~0.1 (≈ 0.0411 µg/mL)	–
OCc1cc(Oc2ccc(Cl)cc2)ccc1N1CC[C@H](Oc2ncccc2Cl)C1 [Compound 1-249, (S)-(5-(4-chlorophenoxy)-2-(3-(3-chloropyridin-2-yloxy)pyrrolidin-1-yl)phenyl)methanol]	BLQ	10 to 100	22.1	–	–	–	–
Cc1ccc(C(=O)N2CCC(c3ccc(-c4ccccc4C(C)C)cc3CO)C2)nc1 (stereo not shown) [Compound 2-79]	–	10 to 100	–	–	–	7.38 (≈ 3.06 µg/mL)	IC50 (hTRPV3; Phase 1 current, human TRPV3, read-out: hTRPV3 (nM) Phase 1): 19.8 nM
Cl.NC(=O)c1cc(-c2cccnc2)ccc1N1CC[C@@H](Oc2ncccc2Cl)C1 [Compound 1-74, (R)-2-(3-(3-chloropyridin-2-yloxy)pyrrolidin-1-yl)-5-(pyridin-3-yl)benzamide hydrochloride]	–	–	–	–	–	> 13.5	IC50 (hTRPV3; hTRPV3 Patch P2 Inwd (nM)): > 1000 nM; IC50 (hTRPV3; [6]): ~5040 nM
CCc1ccccc1-c1ccc(N2CC[C@H](Oc3ncccc3F)C2)c(CO)n1 [Compound 1-204, (S)-(6-(2-ethylphenyl)-3-(3-(3-fluoropyridin-2-yloxy)pyrrolidin-1-yl)pyridin-2-yl)methanol]	–	> 1000	2670	–	–	> 1.8	–
CN(C)C(=O)c1ccccc1-c1ccc(N2CC[C@H](Oc3ccc(C(F)(F)F)cn3)C2)c(CO)c1 [Compound 1-167, (S)-3′-(hydroxymethyl)-N,N-dimethyl-4′-(3-(5-(trifluoromethyl)pyridin-2-yloxy)pyrrolidin-1-yl)biphenyl-2-carboxamide]	–	> 1000	~1290	> 1000	> 3200	> 12.6	–
OCc1cc(Oc2cccc(Cl)c2)ccc1N1CC[C@H](Oc2ncccc2Cl)C1 [Compound 1-248, (S)-(5-(3-chlorophenoxy)-2-(3-(3-chloropyridin-2-yloxy)pyrrolidin-1-yl)phenyl)methanol]	BLQ	10 to 100	12.3	–	–	–	–
OCc1cc(-c2ccccc2)ncc1N1CC[C@H](Oc2ccc(C(F)(F)F)cn2)C1 [Compound 1-158]	–	100 to 1000	773	100 to 1000	747	~2 (≈ 0.831 µg/mL)	–
OCc1cc(Oc2ccccc2Cl)ccc1N1CC[C@H](Nc2ncccc2Cl)C1 [Compound 1-382, (S)-(5-(2-chlorophenoxy)-2-(3-(3-chloropyridin-2-ylamino)pyrrolidin-1-yl)phenyl)methanol]	–	10 to 100	30.9	–	–	0.5 (≈ 0.215 µg/mL)	–
CC(C)(C)OC(=O)N1CC=C(c2ccc(N3CC[C@H](Oc4ccc(C(F)(F)F)cn4)C3)c(CO)c2)CC1 [Compound 1-272, (S)-tert-butyl 4-(3-(hydroxymethyl)-4-(3-(5-(trifluoromethyl)pyridin-2-yloxy)pyrrolidin-1-yl)phenyl)-5,6-dihydropyridine-1 (2H)-carboxylate]	BLQ	> 1000	> 3200	–	–	–	–
OCc1ccccc1-c1ccc(N2CC[C@H](Oc3ccc(C(F)(F)F)cn3)C2)c(CO)c1 [Compound 1-174, (S)-(4′-(3-(5-(trifluoromethyl)pyridin-2-yloxy)pyrrolidin-1-yl)biphenyl-2,3′-diyl)dimethanol]	–	100 to 1000	> 320	> 1000	> 3200	> 0.67	–
NC(=O)c1cc(-c2cccnc2)ccc1N1CC[C@H](Oc2ccc(C(F)(F)F)cn2)C1 [Compound 1-80, (S)-5-(pyridin-3-yl)-2-(3-(5-(trifluoromethyl)pyridin-2-yloxy)pyrrolidin-1-yl)benzamide]	–	> 1000	> 3200	> 1000	~5900	> 3.3	–
CC(O)c1ccccc1-c1ccc(N2CC[C@H](Oc3ccc(C(F)(F)F)cn3)C2)c(CO)c1 (stereo partly drawn) [Compound 1-171, 1-(3′-(hydroxymethyl)-4′-((S)-3-(5-(trifluoromethyl)pyridin-2-yloxy)pyrrolidin-1-yl)biphenyl-2-yl)ethanol]	–	100 to 1000	740	100 to 1000	636	> 5.35	–
NC(=O)c1cc(-c2ccncc2)ccc1N1CC[C@H](Oc2ccc(C(F)(F)F)cn2)C1 [Compound 1-83, (S)-5-(pyridin-4-yl)-2-(3-(5-(trifluoromethyl)pyridin-2-yloxy)pyrrolidin-1-yl)benzamide]	–	> 1000	2840	> 1000	3350	> 3.9	–
OCc1cc(-c2ccccc2)ccc1N1CC[C@H](Oc2ccccn2)C1 [Compound 1-274]	–	100 to 1000	241	–	–	~5.5 (≈ 1.91 µg/mL)	–
N#Cc1ccccc1-c1ccc(N2CC[C@H](Oc3ccc(C(F)(F)F)cn3)C2)c(CO)c1 [Compound 1-155]	BLQ	100 to 1000	–	–	–	–	–
CC(C)(C)OC(=O)N1CCC(c2ccc(N3CC[C@H](Oc4ccc(C(F)(F)F)cn4)C3)c(CO)c2)CC1 [Compound 1-273, (S)-tert-butyl 4-(3-(hydroxymethyl)-4-(3-(5-(trifluoromethyl)pyridin-2-yloxy)pyrrolidin-1-yl)phenyl)piperidine-1-carboxylate]	BLQ	> 1000	> 3200	–	–	–	–
N#Cc1cc(-c2ccccc2)ncc1N1CC[C@@H](Oc2ccc(C(F)(F)F)cn2)C1 [Compound 1-94]	BLQ	–	–	–	~117	–	hTRPV3 (nM) (Phase 2) (hTRPV3; Phase 2 current): Incomplete Block; IC50 (hTRPV3; Phase 2 current, inward, numeric value printed in cell (flagged), read-out: hTRPV3 Patch P2 Inwd): ~117 nM
CCc1ccccc1C(O)c1ccc(N2CC[C@H](Oc3ncccc3Cl)C2)c(CO)c1 (stereo partly drawn) [Compound 1-257, (4-((S)-3-(3-chloropyridin-2-yloxy)pyrrolidin-1-yl)-3-(hydroxymethyl)phenyl)(2-ethylphenyl)methanol]	–	100 to 1000	1060	> 1000	1110	> 6.6	–
NC(=O)c1cc(-c2ccccc2)ccc1N1CC[C@@H](Oc2ncccc2Cl)C1 [Compound 1-75, (R)-4-(3-(3-chloropyridin-2-yloxy)pyrrolidin-1-yl)biphenyl-3-carboxamide]	–	> 1000	~2300	100 to 1000	342	0.32 (≈ 0.126 µg/mL)	–
OCc1cc(-c2ccccc2)ccc1N1CC[C@H](Oc2nc(C(F)(F)F)cs2)C1 [Compound 1-395, (S)-(4-(3-(4-(trifluoromethyl)thiazol-2-yloxy)pyrrolidin-1-yl)biphenyl-3-yl)methanol]	BLQ	> 1000	> 3200	> 1000	> 3200	–	–
COc1ccccc1Oc1ccc(N2CC[C@H](Oc3ncccc3C)C2)c(CO)c1 [Compound 1-340, (S)-(5-(2-methoxyphenoxy)-2-(3-(3-methylpyridin-2-yloxy)pyrrolidin-1-yl)phenyl)methanol]	–	10 to 100	70.1	10 to 100	74.4	~2.4 (≈ 0.976 µg/mL)	–
OCc1cc(-c2ccccc2)ccc1N1CC[C@H](Nc2nc(C(F)(F)F)cs2)C1 [Compound 1-394, (S)-(4-(3-(4-(trifluoromethyl)thiazol-2-ylamino)pyrrolidin-1-yl)biphenyl-3-yl)methanol]	–	100 to 1000	616	100 to 1000	496	1.87 (≈ 0.784 µg/mL)	–
OCc1cc(-c2ccccc2)ccc1N1CC[C@@H](Oc2ccc(C(F)(F)F)cn2)C1 [Compound 1-110, (R)-(4-(3-(5-(trifluoromethyl)pyridin-2-yloxy)pyrrolidin-1-yl)biphenyl-3-yl)methanol]	BLQ	100 to 1000	710	100 to 1000	685	–	–
N#Cc1ccccc1-c1ccc(N2CC[C@H](Oc3ccc(C(F)(F)F)cn3)C2)c(CO)n1 [Compound 1-197, (S)-2-(6-(hydroxymethyl)-5-(3-(5-(trifluoromethyl)pyridin-2-yloxy)pyrrolidin-1-yl)pyridin-2-yl)benzonitrile]	–	10 to 100	~38.5	–	–	~0.4 (≈ 0.176 µg/mL)	–
